Measurements published in patent US9862746B2, “Compositions and methods relating to hindering DOT1L recruitment by MLL-fusion proteins” (The Regents of the University of Michigan, priority 2013, dated 2018).
Where a SMILES comes first, the peptide text is derived from it. [ ]: non-standard residue; d: D form. The star is where a group is joined. 5FAM = O=C1OC2(c3ccc(O)cc3Oc3cc(O)ccc32)c2ccc(C(=O)*)cc21; βAla = NCCC(=O)O

Target: T1, ENL L550E (Homo sapiens, UniProt Q03111, L550E)
T1 construct: MBP-ENL (489-559) L550E; made in house; host or cells: Escherichia coli BL21 (DE3)
T1 sequence (Q03111 489-559 L550E): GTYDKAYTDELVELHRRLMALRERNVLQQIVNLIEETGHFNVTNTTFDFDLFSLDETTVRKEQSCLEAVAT
Experiment: FP saturation binding of Flu-DOT1L 10 mer to mutated ENL
Method: To further map and determined the residues in C-terminal domain of ENL that are essential for the interaction with DOT1L (so called “hot-spots”), an ENL mutant, L550E (FIG. 7A), was prepared which was reported to block the transforming capacity of MLL-ENL fusion protein (see, e.g., Yokoyama, A., et al., (2010) Cancer cell 17, 198-212).
Fluorescence polarization (FP) assay—FP experiments were performed in 96-well, black, round-bottom plates (Corning) using the plate reader (Biotek H1 hybrid). Fluorescein tagged DOT1L 10 mer peptide (Flu-DOT1L) was used as a fluorescent probe in the FP based binding assays. […] The plate was mixed on a shaker and incubated at room temperature to reach equilibrium. The polarization values in milli-polarization units (mP) were measured at an excitation wavelength at 485 nm and an emission wavelength at 530 nm. Polarization data were analyzed using GraphPad Prism 5.0 by non-linear fitting with a one-site binding model.

SMILES: CC[C@H](C)[C@H](NC(=O)[C@@H]1CCCN1C(=O)[C@H](CC(C)C)NC(=O)CCNC(=O)CCNC(=O)[C@H](CCCCNC(=O)c1ccc2c(c1)C(=O)OC21c2ccc(O)cc2Oc2cc(O)ccc21)NC(C)=O)C(=O)N[C@@H](CO)C(=O)N[C@H](C(=O)N1CCC[C@H]1C(=O)N[C@@H](CC(C)C)C(=O)N[C@@H](CO)C(=O)N[C@H](C(=O)N[C@H](C(N)=O)C(C)C)[C@@H](C)O)[C@@H](C)CC [fluorescent labeled DOT1L 10-mer peptide] (Ac-K(5FAM)[βAla][βAla]LPISIPLSTV-NH2)
- binding to ENL L550E mutant protein: did not show binding
